Here are results for 29 compounds from ChEMBL document CHEMBL4425159, “Design, synthesis and antimalarial evaluation of novel thiazole derivatives” (Bioorg Med Chem Lett, 2016).

Series [1] deals with Plasmodium falciparum. Put plainly: Antimalarial activity against chloroquine sensitive-Plasmodium falciparum 3D7 assessed as growth inhibition preincubated for 24 hrs followed by [3H]-hypoxanthine incorporation measured after 24 hrs by scintillation counting. The series is classed as functional, organism-based.
For series [2], the system named is HepG2. Put plainly: Cytotoxicity against human HepG2 cells assessed as cell growth inhibition. The series is classed as cell-based.
Series [3] can be described thus: Lipophilicity, log D of the compound by chromatographic method. The series is classed as physicochemical.

Usually IC50 stands for the point on the concentration scale where inhibition reaches its midpoint. Consider `CC(C)c1sc(N2CCN(C)CC2)nc1C(=O)Nc1c(Cl)cc(F)cc1Cl`, for which the IC50 in series [1] is > 5000 nM.

For the compound `COCCN(C)c1nc(C(=O)Nc2ccc(F)cc2C(F)(F)F)c(C(C)C)s1`, in series [1], the IC50 worked out at 590 nM.

As to `CC(C)c1sc(N2CCN(C)CC2)nc1C(=O)Nc1ccccc1OC(F)(F)F`, the concentration for half-maximal inhibition (IC50) in series [1] is 34 nM; in series [2], > 100000 nM.

`CC(C)c1sc(N2CCN(C)CC2)nc1C(=O)Nc1ccccc1C#N`: the IC50 in series [1] was determined as 98 nM; in series [2] it was 32000 nM.

In the case of `CC(C)c1sc(N2CCN(C)CC2)nc1C(=O)Nc1ccccc1C(F)(F)F`, the half-maximal inhibitory concentration (IC50) in series [1] is 31 nM; in series [2], 50000 nM.

Turning to `Cc1ccc(NC(=O)c2nc(N3CCN(C)CC3)sc2C(C)C)c(Cl)c1`, in series [1], the IC50 was 3270 nM.

For `CC(C)c1sc(N2CCN(C)CC2)nc1C(=O)Nc1cccnc1`, in series [1], the 50% inhibitory concentration (IC50) is > 5000 nM.

For the compound `CC(C)c1sc(N2CCN(C)CC2)nc1C(=O)Nc1c(Cl)cc(C(F)(F)F)cc1Cl`, the IC50 in series [1] was > 5000 nM.

`CC(C)c1sc(N2CCN(C)CC2)nc1C(=O)Nc1ccccc1Cl`: the IC50 in series [1] was 58 nM; in series [2], > 100000 nM.

As to `CC(C)c1sc(N2CCN(C)CC2)nc1C(=O)Nc1ccccc1S(N)(=O)=O`, the IC50 in series [1] is > 5000 nM.

With `CC(C)c1sc(N2CCN(C)CC2)nc1C(=O)Nc1cc(F)cc(F)c1`, the IC50 in series [1] is > 5000 nM.

Turning to `CC(C)c1sc(N(C)CCN(C)C)nc1C(=O)Nc1ccc(F)cc1C(F)(F)F`, the IC50 in series [1] was found to be 3150 nM.

In the case of `CC(C)c1sc(N2CCN(C)CC2)nc1C(=O)Nc1ccccc1F`, in series [1], the IC50 was determined as 260 nM.

Turning to `CC(C)c1sc(N2CCN(C)CC2)nc1C(=O)Nc1ccc(C(F)(F)F)cc1Cl`, the IC50 in series [1] was > 5000 nM.

Broadly, the chromatographic logD is a lipophilicity value derived from retention on a column. Consider `CC(C)c1sc(N2CCN(C)CC2)nc1C(=O)Nc1cccnc1Cl`, for which the IC50 in series [1] was 80 nM; in series [2], > 100000 nM. The chromatographic logD in series [3] came to 7.8.

Regarding `CC(C)c1sc(N2CCN(C)CC2)nc1C(=O)Nc1c(F)cccc1F`, the IC50 in series [1] was > 5000 nM.

Take `CC(C)c1sc(N2CCN(C)CC2)nc1C(=O)Nc1ccccc1C(N)=O`: the IC50 in series [1] is > 5000 nM.

Take `CC(C)c1sc(N2CCN(C)CC2)nc1C(=O)Nc1ncccc1Cl`: the IC50 in series [1] is > 5000 nM.

The logD is lipophilicity at a set pH, counting ionised and neutral species. Read a high logD as a more lipophilic compound. On to `CC(C)c1sc(N2CCN(C)CC2)nc1C(=O)Nc1ccc(F)cc1C(F)(F)F`, for which the results for the IC50 in series [1] and in series [2] were 24 nM and 78000 nM, respectively. The compound also yielded a logD in series [3] of 9.06.

As for `CC(C)c1sc(N2CCN(C)CC2)nc1C(=O)Nc1cnccc1Cl`, in series [1], the IC50 was determined as 1700 nM.

On to `CC(C)c1sc(N2CCN(C)CC2)nc1C(=O)Nc1ccc(F)cc1F`, for which the 50% inhibitory concentration (IC50) in series [1] was 1190 nM.

Take `CC(C)c1sc(N2CCN(C)CC2)nc1C(=O)Nc1ccc(F)cc1Cl`: the IC50 in series [1] is 58 nM; in series [2] it was > 100000 nM.

`Cc1cc(F)ccc1NC(=O)c1nc(N2CCN(C)CC2)sc1C(C)C`: in series [1], the IC50 was determined as 720 nM.

On to `COc1ccccc1NC(=O)c1nc(N2CCN(C)CC2)sc1C(C)C`, for which the half-inhibitory concentration (IC50) in series [1] was 350 nM.

Take `CC(C)c1sc(N2CCOCC2)nc1C(=O)Nc1ccc(F)cc1C(F)(F)F`: in series [1], the IC50 turned out to be 102 nM.

On to `CC(C)c1sc(N(C)CCO)nc1C(=O)Nc1ccc(F)cc1C(F)(F)F`, for which the IC50 in series [1] came to 3260 nM.

On to `CC(C)c1sc(N2CCN(C)CC2)nc1C(=O)Nc1ccc(F)cc1`, for which the IC50 in series [1] is > 5000 nM.

Regarding `CC(C)c1sc(N2CCN(C)CC2)nc1C(=O)Nc1cccc(Cl)n1`, the concentration for half-maximal inhibition (IC50) in series [1] was 350 nM.

Regarding `CC(C)c1sc(N2CCN(C)CC2)nc1C(=O)Nc1ccccc1CO`, the IC50 in series [1] was > 5000 nM.
